SMILES strings stand for the structures. Bounds are passed on as bounds.

Data on three molecules can be found in patent publication US11723898B2, “Androgen receptor inhibitors for the treatment of non-metastatic castration-resistant prostate cancer in subjects with severe hepatic impairment” (Aragon Pharmaceuticals, Inc., priority 2019, dated 2023).

One series concerns the target AR (Homo sapiens, UniProt P10275). The conditions noted are these: cited from earlier work.
A short description of series [1]: pharmacokinetic study data, subjects with mild and moderate hepatic impairment versus healthy controls. The series is classed as in vivo, human.
Series [2] concerns non-castrate hormone-sensitive and bicalutamide-resistant human prostate cancer xenograft models. As to conditions: cited from earlier work.
In another series the target is T1, T877A AR mutant (Homo sapiens, UniProt P10275, T878A).
T1 sequence (P10275 1-920 T878A): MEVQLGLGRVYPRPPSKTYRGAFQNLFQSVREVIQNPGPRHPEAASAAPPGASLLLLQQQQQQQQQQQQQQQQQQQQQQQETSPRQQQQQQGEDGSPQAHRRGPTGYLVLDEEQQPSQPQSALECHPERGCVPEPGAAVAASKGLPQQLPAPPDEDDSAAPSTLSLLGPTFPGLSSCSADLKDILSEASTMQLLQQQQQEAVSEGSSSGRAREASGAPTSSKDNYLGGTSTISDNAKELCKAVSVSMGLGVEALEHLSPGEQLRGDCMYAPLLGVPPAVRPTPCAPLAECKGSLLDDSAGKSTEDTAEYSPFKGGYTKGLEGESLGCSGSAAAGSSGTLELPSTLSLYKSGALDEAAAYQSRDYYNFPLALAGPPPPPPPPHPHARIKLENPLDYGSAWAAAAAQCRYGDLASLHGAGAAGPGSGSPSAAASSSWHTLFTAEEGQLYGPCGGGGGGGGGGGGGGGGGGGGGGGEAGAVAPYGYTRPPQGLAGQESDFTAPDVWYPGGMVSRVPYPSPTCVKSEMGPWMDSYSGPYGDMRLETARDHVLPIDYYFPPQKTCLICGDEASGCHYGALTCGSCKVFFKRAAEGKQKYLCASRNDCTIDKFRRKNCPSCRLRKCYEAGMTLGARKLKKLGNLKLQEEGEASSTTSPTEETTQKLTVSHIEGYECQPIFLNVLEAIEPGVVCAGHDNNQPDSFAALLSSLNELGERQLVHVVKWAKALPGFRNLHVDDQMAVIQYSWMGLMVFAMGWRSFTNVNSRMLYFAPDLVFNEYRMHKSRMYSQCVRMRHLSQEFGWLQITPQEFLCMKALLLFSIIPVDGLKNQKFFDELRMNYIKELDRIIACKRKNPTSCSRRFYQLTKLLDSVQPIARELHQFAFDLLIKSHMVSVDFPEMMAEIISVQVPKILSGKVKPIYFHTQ
As to conditions: cited from earlier work.

Sequence of AR (P10275 whole entry): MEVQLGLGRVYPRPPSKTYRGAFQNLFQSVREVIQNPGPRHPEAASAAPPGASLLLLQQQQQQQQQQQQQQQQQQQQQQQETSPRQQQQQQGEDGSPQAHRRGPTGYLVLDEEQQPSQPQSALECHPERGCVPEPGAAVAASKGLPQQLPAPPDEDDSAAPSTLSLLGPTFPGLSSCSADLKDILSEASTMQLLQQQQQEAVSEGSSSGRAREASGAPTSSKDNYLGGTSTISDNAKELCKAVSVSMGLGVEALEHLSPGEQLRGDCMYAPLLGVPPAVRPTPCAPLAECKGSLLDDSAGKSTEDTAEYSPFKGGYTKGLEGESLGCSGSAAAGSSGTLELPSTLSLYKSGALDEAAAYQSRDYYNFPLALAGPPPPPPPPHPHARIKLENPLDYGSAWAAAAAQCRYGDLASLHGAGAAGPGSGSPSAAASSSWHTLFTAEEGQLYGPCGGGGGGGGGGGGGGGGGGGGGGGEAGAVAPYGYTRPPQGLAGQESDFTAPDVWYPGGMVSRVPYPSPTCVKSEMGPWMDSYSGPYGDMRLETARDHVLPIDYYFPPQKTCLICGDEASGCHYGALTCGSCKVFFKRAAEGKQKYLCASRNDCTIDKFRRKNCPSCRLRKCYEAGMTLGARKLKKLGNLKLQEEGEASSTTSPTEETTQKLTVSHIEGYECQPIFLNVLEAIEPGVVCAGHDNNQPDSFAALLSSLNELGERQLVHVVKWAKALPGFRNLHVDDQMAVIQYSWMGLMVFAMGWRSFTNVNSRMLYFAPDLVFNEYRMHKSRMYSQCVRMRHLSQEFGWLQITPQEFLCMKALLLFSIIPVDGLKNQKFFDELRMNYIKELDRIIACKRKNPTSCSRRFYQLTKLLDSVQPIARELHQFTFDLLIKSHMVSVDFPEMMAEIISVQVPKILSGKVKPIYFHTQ

As to `CC(O)c1cc(C(=O)N[C@@H](C)Cn2ccc(-c3ccc(C#N)c(Cl)c3)n2)n[nH]1` (stereo partly drawn) [Darolutamide, N-{(2S)-1-[3-(3-chloro-4-cyanophenyl)-1H-pyrazol-1-yl]propan-2-yl}-5-(1-hydroxyethyl)-1H-pyrazole-3-carboxamide], the “binding affinity for AR” value on AR is “high affinity”.

For `CNC(=O)c1ccc(N2C(=S)N(c3cnc(C#N)c(C(F)(F)F)c3)C(=O)C23CCC3)cc1F` [apalutamide, 4-[7-(6-cyano-5-trifluoromethylpyridin-3-yl)-8-oxo-6-thioxo-5,7-diazaspiro[3.4]oct-5-yl]-2-fluoro-N-methylbenzamide], in series [1], the “total coefficient of variation (CV) for AUCs (AUClast and AUC∞)” value is no more than 27%; the “total coefficient of variation (CV) for Cmax” value is no more than 35%. For the same molecule, the tumor regression result in series [2] is “partial or complete tumor regression”. For `CC(C)(O)C(=O)Nc1ccc([N+](=O)[O-])c(C(F)(F)F)c1` [hydroxyflutamide], the agonist activity result on T877A AR mutant is listed as “act as AR agonists”.
